The values below come from ChEMBL document CHEMBL1781891, “An efficient preparation of N-alkyl-2-benzazepine derivatives and investigation of their biological activity” (Bioorg Med Chem Lett, 2009).

Structures are written as SMILES. The source made the active and inactive calls. The calls are words filed in the database; no cut-off is given here.

The test concerns HaCaT. Kind of test: Induction of cell migration in human HaCaT cells at 30 uM by in vitro wound healing assay. Type of test: functional, cell-based.
On to `COc1ccc2c(c1)CN(Cc1ccccc1)C(=O)C(C)C2` (stereo not drawn), for which the result was inactive. In the case of `CCCCCN1Cc2cc(OC)ccc2CC(C)C1=O` (stereo not drawn) it was “inactive”; in that of `CCCN1Cc2cc(OC)ccc2CC(C)C1=O` (stereo not drawn), “inactive”; in that of `COc1ccc2c(c1)CN(C(C)C)C(=O)C(C)C2` (stereo not drawn), “inactive”. Turning to `COc1ccc2c(c1)CN(C)C(=O)C(C)C2` (stereo not drawn), the outcome was Active. As for `CCCCN1Cc2cc(OC)ccc2CC(C)C1=O` (stereo not drawn), the entry is “inactive”; as for `CCN1Cc2cc(OC)ccc2CC(C)C1=O` (stereo not drawn), “Active”; as for `COc1ccc2c(c1)CNC(=O)C(C)C2` (stereo not drawn), “Active”.
